Data: the OPERA property sets (Mansouri et al. 2018)
≈ marks a conversion by molar mass, not a printed value.

Details: not given
In the case of `CC(C)C(Br)C(=O)N[C@@H](C)C(=O)O` (mixture of isomers), the solubility was 329 mM (≈ 83000 µg/mL). Molecule `CCCCOCCOC(N)=O` has a solubility of 310 mM (≈ 50000 µg/mL). For `COC1CCCC(C)O1` (stereo not drawn), the solubility was 256 mM (≈ 33300 µg/mL). For `CCC(CC)(C(N)=O)C(N)=O`, the solubility was 63.2 mM (≈ 10000 µg/mL). `O=C(O)c1cc(=O)nc(-c2ccccc2)[nH]1` showed a solubility of 6.15 mM (≈ 1330 µg/mL). In the case of `O=C(O)C1(O)CCCCC1`, the solubility was 465 mM (≈ 67000 µg/mL). Work on `CC1(O)CCC(C)(O)CC1` (stereo not drawn) yielded a solubility of 243 mM (≈ 35000 µg/mL). For `NNC(=O)c1nccs1`, the solubility was 210 mM (≈ 30000 µg/mL). `NC(=O)C[C@H](NC(=O)CCl)C(=O)O` showed a solubility of 479 mM (≈ 100000 µg/mL). In the case of `CCC(CC)(S(=O)(=O)CC)S(=O)(=O)CC`, the solubility was 8.66 mM (≈ 2220 µg/mL). For `CC(=O)OC(C)C#N` (stereo not drawn), the solubility was 1770 mM (≈ 200000 µg/mL). `Oc1ccccc1Oc1ccccc1` gave a solubility of 0.591 mM (≈ 110 µg/mL). `O=C(O)C(=O)C(c1ccccc1)c1ccccc1` gave a solubility of 4.62 mM (≈ 1110 µg/mL). For `CC(=O)C(=O)Nc1ccccc1`, the solubility was 42.9 mM (≈ 7000 µg/mL). `Nc1ccc(C#Cc2ccc(N)cc2)cc1` showed a solubility of 3.69 mM (≈ 769 µg/mL). Molecule `NCCCNc1ccccc1` has a solubility of 22.2 mM (≈ 3330 µg/mL). `CCOC(C)C(=O)C=O` (stereo not drawn) gave a solubility of 699 mM (≈ 91000 µg/mL). In the case of `CCCC(Br)(CCC)C(N)=O`, the solubility was 14.9 mM (≈ 3300 µg/mL). `COC(/C=C/C(OC)OC)OC` showed a solubility of 1140 mM (≈ 200000 µg/mL). With `O=C(c1cccc2ccccc12)N(O)c1ccccc1` the solubility was 0.114 mM (≈ 30 µg/mL). `Cn1c(=O)ncc2[nH]c(=O)[nH]c21` gave a solubility of 161 mM (≈ 26700 µg/mL). For `O=C1CNC(=O)C(Cc2ccc(O)cc2)N1` (stereo not drawn), the solubility was 90.8 mM (≈ 20000 µg/mL). Molecule `C[C@H](NC(=O)c1ccccc1)C(=O)O` (racemic) has a solubility of 20.7 mM (≈ 4000 µg/mL). In the case of `COCCCCC=O`, the solubility was 2870 mM (≈ 333000 µg/mL). `CCCCCSS(=O)CCCCC` (stereo not drawn) showed a solubility of 0.674 mM (≈ 150 µg/mL). Molecule `O=C(O)/C=C/CBr` has a solubility of 182 mM (≈ 30000 µg/mL). Molecule `CC(=O)c1ccc(O)c(C(=O)O)c1` has a solubility of 5.88 mM (≈ 1060 µg/mL). Molecule `C[C@H]1NC(=O)[C@@H](C)NC1=O` has a solubility of 703 mM (≈ 100000 µg/mL).

Same assay, conditions: 20 °C
`Nc1ccc(Cl)cc1[N+](=O)[O-]` showed a solubility of 2.9 mM (≈ 500 µg/mL). Work on `O=c1nccc[nH]1` yielded a solubility of 4730 mM (≈ 455000 µg/mL). For `O=C(NCCO)C(=O)NCCO`, the solubility was 772 mM (≈ 136000 µg/mL). In the case of `CC(C)(O)CC(C)(O)c1cccc2ccccc12` (stereo not drawn), the solubility was 0.573 mM (≈ 140 µg/mL). `CC(C)COC(=O)c1ccc(N)cc1` gave a solubility of 1.14 mM (≈ 220 µg/mL). Molecule `Clc1ncc2nccnc2n1` has a solubility of 200 mM (≈ 33300 µg/mL). In the case of `OCc1cccc(O)c1`, the solubility was 540 mM (≈ 67000 µg/mL). `C/C=C\CC1(C/C=C/C)C(=O)NC(=O)NC1=O` showed a solubility of 6.35 mM (≈ 1500 µg/mL). `OCc1ccc(Br)cc1` showed a solubility of 11.8 mM (≈ 2200 µg/mL). For `NC(=O)NC(Cc1ccccc1)C(=O)O` (racemic), the solubility was 8.02 mM (≈ 1670 µg/mL). `OCc1ccc(Cl)cc1Cl` showed a solubility of 5.65 mM (≈ 1000 µg/mL). Molecule `O=c1cccc2[nH]ccnc1-2` has a solubility of 45 mM (≈ 6580 µg/mL). In the case of `CN(C)c1ncnc2nccnc12`, the solubility was 95.1 mM (≈ 16700 µg/mL). For `O=C(O)CCNC(=O)Nc1ccc([N+](=O)[O-])cc1`, the solubility was 1.97 mM (≈ 500 µg/mL). Molecule `O=C(O)C(Br)=C(Br)Br` has a solubility of 43.7 mM (≈ 13500 µg/mL). `CCCCCCCCOC(=O)c1cc(O)c(O)c(O)c1` showed a solubility of 0.127 mM (≈ 36 µg/mL). `c1ccc2c(c1)Nc1ccc3ccccc3c1S2` showed a solubility of 0.000267 mM (≈ 0.0667 µg/mL). `O=C1COc2ccccc2N1` showed a solubility of 2.68 mM (≈ 400 µg/mL). For `O=C(O)Cc1ccccc1C(=O)O`, the solubility was 88.8 mM (≈ 16000 µg/mL). Molecule `NC1=NC2=NC=NC2C(C(F)(F)F)=N1` (stereo not drawn) has a solubility of 0.733 mM (≈ 149 µg/mL). With `N#Cc1cccc(N)c1` the solubility was 67.7 mM (≈ 8000 µg/mL). Molecule `O=C(O)C(Br)=C(Br)I` has a solubility of 95.6 mM (≈ 34000 µg/mL). With `CCOc1ccc(NC(C)=O)c2cccnc12` the solubility was 30.4 mM (≈ 7000 µg/mL). Work on `COC(=O)c1cc([N+](=O)[O-])ccc1C(=O)O` yielded a solubility of 19 mM (≈ 4280 µg/mL). For `O=C1CC(c2ccccc2)CC(=O)C1[N+](=O)[O-]` (stereo not drawn), the solubility was 21.4 mM (≈ 5000 µg/mL). `NC(=O)C(Br)Br` gave a solubility of 87.6 mM (≈ 19000 µg/mL). `Nc1nc(N)nc(Cl)n1` gave a solubility of 4.12 mM (≈ 600 µg/mL). Work on `O=C(O)CCCC(C(=O)O)(c1ccccc1)c1ccccc1` yielded a solubility of 0.67 mM (≈ 200 µg/mL). Molecule `CC1NC(C)SC(C)S1` (stereo not drawn) has a solubility of 42.9 mM (≈ 7000 µg/mL). Work on `COC(=O)c1cc(O)c(OC)c(O)c1` yielded a solubility of 25.2 mM (≈ 5000 µg/mL). For `COc1nsc(N)n1`, the solubility was 57.2 mM (≈ 7500 µg/mL). In the case of `CN1c2ccccc2Sc2ccccc21`, the solubility was 0.00255 mM (≈ 0.544 µg/mL). In the case of `CCc1nc2cnc(O)nc2nc1CC`, the solubility was 5.44 mM (≈ 1110 µg/mL).

Same assay, conditions: 21 °C
`Cc1cc(O)c(C(=O)O)cc1Cl` showed a solubility of 0.75 mM (≈ 140 µg/mL). `COc1ccc2[nH]c(=O)cc(C(=O)O)c2c1` showed a solubility of 0.776 mM (≈ 170 µg/mL). Molecule `CNC(CC(=O)O)C(=O)O` (stereo in doubt) has a solubility of 176 mM (≈ 25900 µg/mL).

Same assay, conditions: 22 °C
With `Cc1ccc(N)cc1C` the solubility was 31.4 mM (≈ 3800 µg/mL). Molecule `COCOC(=O)c1ccccc1O` has a solubility of 5.01 mM (≈ 913 µg/mL).

Same assay, conditions: 23 °C
`CCCC(N)C(=O)O` (racemic) showed a solubility of 805 mM (≈ 94300 µg/mL).

Same assay, conditions: 24 °C
Work on `O=C(O)c1ccc(C(=O)O)c(Br)c1` yielded a solubility of 7.35 mM (≈ 1800 µg/mL).

Same assay, conditions: 25 °C
With `CC(C)C1OCC2(CO1)COC(C(C)C)OC2` (stereo not drawn) the solubility was 0.769 mM (≈ 188 µg/mL). For `CCc1cc(C)cc(O)c1`, the solubility was 17 mM (≈ 2320 µg/mL). `CCCCCOC(=O)CCOCC` showed a solubility of 6.37 mM (≈ 1200 µg/mL). For `O=C(O)CC[Se][Se]CCC(=O)O`, the solubility was 5.39 mM (≈ 1640 µg/mL). With `O=NN1CCCC1=O` the solubility was 1130 mM (≈ 129000 µg/mL). With `CCSC(C(=O)O)c1ccccc1` (stereo not drawn) the solubility was 27 mM (≈ 5300 µg/mL). `Cc1ccc(S(=O)(=O)Oc2ccccc2C)cc1` gave a solubility of 0.114 mM (≈ 30 µg/mL). `NC(C(=O)O)C(O)C(=O)O` (stereo not drawn) showed a solubility of 149 mM (≈ 22200 µg/mL). In the case of `CCCOCCC(=O)OC`, the solubility was 233 mM (≈ 34000 µg/mL). `CCC(CC)(C(=O)O)C(CC)(CC)C(=O)O` showed a solubility of 1.09 mM (≈ 250 µg/mL). For `CCCC(=O)NCCNC(=O)CCC`, the solubility was 239 mM (≈ 47800 µg/mL). Work on `CCCCCCCCOCC(O)CO` (stereo not drawn) yielded a solubility of 12 mM (≈ 2450 µg/mL). `OCc1ccccc1CO` gave a solubility of 1140 mM (≈ 158000 µg/mL). `O=C1CNC(=S)N1c1ccccc1` showed a solubility of 0.572 mM (≈ 110 µg/mL). In the case of `CCCCCCP(=O)(OCC)OCC`, the solubility was 2.7 mM (≈ 600 µg/mL). With `CCCCCCOC(=O)c1cccnc1` the solubility was 2.22 mM (≈ 460 µg/mL). Work on `NC(=O)OC(CCl)CCl` yielded a solubility of 43.6 mM (≈ 7500 µg/mL). `O=C(NC1CCCCC1)c1cccnc1` gave a solubility of 4.8 mM (≈ 980 µg/mL). `CC1=C(C(=O)O)CCC1(C)C` showed a solubility of 1.3 mM (≈ 200 µg/mL). `CC(=O)Nc1ccc(C)cc1` showed a solubility of 8.04 mM (≈ 1200 µg/mL). With `N=C(NO)C(=N)NO` the solubility was 167 mM (≈ 19700 µg/mL). For `Cc1ccc(S(=O)(=O)N(Cl)Cl)cc1`, the solubility was 0.342 mM (≈ 82.1 µg/mL). In the case of `CCC(O)CCC(C)C` (stereo not drawn), the solubility was 11.8 mM (≈ 1540 µg/mL). Work on `CCCCCOC(=O)c1cccnc1` yielded a solubility of 4.19 mM (≈ 810 µg/mL). Molecule `CCCOP(=O)(OCC)OCCC` has a solubility of 105 mM (≈ 22000 µg/mL). Work on `C1CCC2NCCCC2C1` (stereo not drawn) yielded a solubility of 82.6 mM (≈ 11500 µg/mL). `CCN[C@@H](C)C(=O)O` (racemic) showed a solubility of 4490 mM (≈ 526000 µg/mL). `O=C1OCc2ccc(I)cc21` showed a solubility of 0.615 mM (≈ 160 µg/mL). `CCC1(c2ccccc2)NC(=O)NC1=O` (stereo not drawn) gave a solubility of 6.76 mM (≈ 1380 µg/mL). For `O=COCc1ccco1`, the solubility was 104 mM (≈ 13100 µg/mL). `CCc1c[nH]c(=O)nc1N` gave a solubility of 95.6 mM (≈ 13300 µg/mL). Molecule `CC(=O)CC(=O)c1ccccc1` has a solubility of 2.36 mM (≈ 383 µg/mL). Work on `CCCCCCCCCCCCNC(=O)c1cccnc1` yielded a solubility of 0.62 mM (≈ 180 µg/mL). `O=C1CC=CS1` showed a solubility of 599 mM (≈ 60000 µg/mL). Work on `O=[N+]([O-])c1ccc(O)c([N+](=O)[O-])c1-c1ccccc1` yielded a solubility of 0.192 mM (≈ 50 µg/mL). Molecule `Cc1cccc(Cl)c1O` has a solubility of 168 mM (≈ 24000 µg/mL). In the case of `N#CCCN(CCC#N)C(CC(=O)O)C(=O)O` (racemic), the solubility was 29.3 mM (≈ 7000 µg/mL). Molecule `O=c1ccc(Br)cc(Br)c1O` has a solubility of 0.314 mM (≈ 88 µg/mL). `CCCCN(C(N)=O)c1ccccc1` showed a solubility of 50.5 mM (≈ 9700 µg/mL). `ON=C1C=CC(=NO)c2ncccc21` showed a solubility of 0.159 mM (≈ 30 µg/mL). `CC(=O)NC(=O)NC(C)=O` showed a solubility of 486 mM (≈ 70000 µg/mL). For `CCCCCCCCCC(C(=O)O)C(=O)O`, the solubility was 0.499 mM (≈ 115 µg/mL). `NC(=O)NCC(=O)NCC(=O)O` showed a solubility of 126 mM (≈ 22100 µg/mL). Work on `NS(=O)(=O)c1ccc(S(N)(=O)=O)cc1` yielded a solubility of 2.96 mM (≈ 700 µg/mL). With `Nc1ccc(S(=O)(=O)c2ccc(Cl)cc2)cc1` the solubility was 0.0747 mM (≈ 20 µg/mL). Molecule `CCCCCOP(=O)(OCC)OCC` has a solubility of 33.4 mM (≈ 7500 µg/mL). Molecule `Cc1ccc(S(C)(=O)=O)cc1` has a solubility of 10.3 mM (≈ 1750 µg/mL).

Same assay, conditions: 26 °C
With `CC(C=NO)=NO` the solubility was 451 mM (≈ 46000 µg/mL). With `N#CCCNC(CCC(=O)O)C(=O)O` (stereo not drawn) the solubility was 49.9 mM (≈ 10000 µg/mL). `C=CCc1ccc(O)c(O)c1` gave a solubility of 166 mM (≈ 25000 µg/mL).

Same assay, conditions: 30 °C
In the case of `CCCOC(=O)CO[N+](=O)[O-]`, the solubility was 11 mM (≈ 1800 µg/mL). Molecule `CCOC(=O)CO[N+](=O)[O-]` has a solubility of 19.4 mM (≈ 2900 µg/mL). Molecule `CCOC(=O)c1ccc(O)c(Cl)c1` has a solubility of 0.598 mM (≈ 120 µg/mL). Molecule `CCCCCCCOC(=O)c1ccc(O)cc1` has a solubility of 0.0846 mM (≈ 20 µg/mL). In the case of `O=S(=O)(CCCl)CCS(=O)(=O)CCCl`, the solubility was 35.6 mM (≈ 10100 µg/mL).
